The record followed here is patent US11345895B2, “Induction of arterial-type of hemogenic endothelium (AHE) and enhancement of T cell production from PSCs through overexpression of ETS factors or modulating MAPK/ERK signalling pathways” (Wisconsin Alumni Research Foundation, priority 2016, dated 2022).

SMILES strings stand for the structures.

Common to all, as to assay type: cell-based, human
Assay [1] relates to iETS1-hESCs (H1, DOX-inducible ETS1 transgene). The assay is described as follows: Primitive and definitive hematopoiesis from DOX-treated iETS1-hESCs (HB-CFC, HE, T cell, RBC cultures). The note with it: CD43+ cells subcultured on OP9-DLL4. As for the experimental part:
To define which type of hematopoiesis is affected by ETS1 overexpression, we evaluated the effect of DOX treatment on i) hemangioblast (HB) CFCs that reflect the primitive wave of hematopoiesis^37, 38 and ii) on T lymphocytes and β-hemoglobin-producing red blood cells that reflect definitive hematopoiesis (FIG. 3A)^37, 39. […] This effect was more profound when cultures were treated with DOX from day 0 through day 3 to ensure maximum ETS1 overexpression on day 3 (FIG. 3B and FIGS. 9B-9C). […] To determine the effect of ETS1 upregulation on T cell potential, we collected CD43^+ cells from DOX+ and DOX− cultures and subcultured on OP9−DLL4 stromal cells. […]
HB-CFCs were detected as described previously^54. HB-CFCs were detected using the semisolid colony-forming serum-free medium (CF-SFM) containing 40% ES-Cult M3120 methylcellulose (2.5% solution in IMDM, Stem Cell Technologies), 25% StemSpan™ serum-free expansion medium (SFEM, Stem Cell Technologies), 25% human endothelial serum-free medium (ESFM, Invitrogen), 10% BIT 9500 supplement (Stem Cell Technologies), GlutaMAX™ (1/100 dilution, Invitrogen), Ex-Cyte™ (1/1000 dilution, Millipore), 100 μM MTG, 50 μg/ml ascorbic acid and 20 ng/ml FGF (Peprotech). Hematopoietic CFCs were detected using serum containing H4435 MethoCult with FGF, SCF, IL-3, IL-6 and EPO (Stem Cell Technologies). […]

Assay [2] deals with NOTCH signaling in iETS1 hESC cultures. The assay is described as follows: Hematopoiesis following ETS1 upregulation in the presence of NOTCH signaling blockade. The note with it: DOX-treated iETS1 hESC cultures; DAPT 10 μM, DLL4 blocking antibody 10 μg/ml. From the text: To confirm the role of NOTCH activation in promoting definitive hematopoiesis by ETS1, we evaluated hematopoiesis following ETS1 upregulation in the presence of NOTCH signaling inhibitor DAPT, and DLL4 neutralizing antibodies (FIG. 4E).
HB-CFCs were detected as described previously^54. HB-CFCs were detected using the semisolid colony-forming serum-free medium (CF-SFM) containing 40% ES-Cult M3120 methylcellulose (2.5% solution in IMDM, Stem Cell Technologies), 25% StemSpan™ serum-free expansion medium (SFEM, Stem Cell Technologies), 25% human endothelial serum-free medium (ESFM, Invitrogen), 10% BIT 9500 supplement (Stem Cell Technologies), GlutaMAX™ (1/100 dilution, Invitrogen), Ex-Cyte™ (1/1000 dilution, Millipore), 100 μM MTG, 50 μg/ml ascorbic acid and 20 ng/ml FGF (Peprotech). Hematopoietic CFCs were detected using serum containing H4435 MethoCult with FGF, SCF, IL-3, IL-6 and EPO (Stem Cell Technologies).
Cells were analyzed using MACSQuant Analyzer (Miltenyi Biotec) and FlowJo software (Tree star).
Notch signaling was blocked by DAPT (γ-secretase inhibitor/GSI, 10 μM, Cayman Chemicals) or DLL4 blocking antibody (10 μg/ml, Creative BioLabs)

Assay [3] has as its system CD235a/CD41a-CD45+ hematopoietic progenitors from hESCs. The assay is described as follows: Hematopoietic progenitor production and hematopoietic CFC assay after modulation of MAPK/ERK signaling. The note with it: ERK pathway activated (LY294002 2 μM) or inhibited (U0126 1 μM), days 3-6.
Method: (§1) To determine whether modulating MAPK/ERK signaling affects arterial specification of HE from hPSCs, we treated differentiation cultures on days 3 through day 6 with PI3K inhibitor LY294002, or MEK1 and MEK2 inhibitor U0126 (FIG. 6A).
(§2) MAPK/ERK pathway was activated using LY294002 (2 μM, Cayman Chemicals) and was inhibited using U0126 (1 μM, Cayman Chemicals)
Assay [4] concerns T lymphoid potential of hESC cultures. Put plainly: T cell differentiation on OP9-DLL4 after LY294002 or U0126 treatment. The settings on record: cultures treated with LY294002 2 μM or U0126 1 μM.
Method: as §1
T cell differentiation of hESC-derived hematopoietic precursors was performed on the OP9−DLL4 in T cell differentiated medium consisting of α-MEM (Gibco) supplemented with 20% FBS (Hyclone), 5 ng/ml FLT3L, 5 ng/ml IL-7 and 10 ng/ml SCF (all from PeproTech) as described previously^26. […] Cultures were fed with complete media changes weekly.
as §2
Assay [5] deals with DLL4+ arterial type HE from hPSCs. Put plainly: Arterial HE specification in hESC differentiation cultures with modulation of MAPK/ERK signaling (flow cytometry). The note with it: differentiation cultures treated on days 3 through day 6; LY294002 2 μM, U0126 1 μM. For orientation: Flow cytometry measures light scatter and fluorescence of single cells or particles in a stream.
Method: as §1
H1 hESC line, the iETS1 H1 hESC line and the tdTomato H1 hESCs line were maintained on Matrigel™ in mTeSR1™ medium. Cells were passaged every 3-4 days using 0.5 mM EDTA in PBS. The hESC lines were differentiated on ColIV coated plate as previously described in details^26.
as §2

For `C[C@H]1c2cccc(O)c2C(=O)C2=C(O)[C@]3(O)C(=O)C(C(N)=O)=C(O)[C@@H](N(C)C)[C@@H]3[C@@H](O)[C@@H]21` [DOX, doxycycline], the “number of T lymphoid cells per 10^4 of CD43 cells, DOX+ versus DOX- cultures” value in assay [1] is roughly 8 fold.
With `C[C@H](NC(=O)Cc1cc(F)cc(F)c1)C(=O)N[C@H](C(=O)OC(C)(C)C)c1ccccc1` [DAPT], in assay [2], the “effect of ETS1 upregulation on hematopoiesis (blood production and CFC potential)” value is “abrogated effect”.
For the molecule `N#CC(=C(/N)Sc1ccccc1N)/C(C#N)=C(\N)Sc1ccccc1N` [U0126], the “production of multipotent CD235a/CD41a-CD45+ hematopoietic progenitors and CFC potential” value in assay [3] was “abrogated production”. The T lymphoid potential entry in assay [4] is listed as “entirely abrogated”. Further, the “production of DLL4+ arterial type HE, including the DLL4+CXCR4+ fraction” value in assay [5] is on record as “almost completely abrogated formation”.
